Data on five compounds can be found in patent US20250326755A1, “CYCLIC QUATERNARY AMMONIUM SALT COMPOUND, AND PREPARATION METHOD THEREFOR AND USE THEREOF” (YICHANG HUMANWELL PHARMACEUTICAL CO., LTD., priority 2022, published 2025).

Where two headings read alike, the source gives them in different places.

Assay type in all cases: in vivo, SD rats
The test system of one test is sciatic nerve of the rat. As to the method: The experimental methods described in the following test examples were standard procedures unless otherwise specified. All experimental animals used in the following test examples were SD rats purchased from Hunan Slac Jingda Experimental Animal Co., Ltd. Other test materials, unless stated otherwise, were purchased from conventional biochemical reagent suppliers.
The compounds listed in Table 1 and levobupivacaine hydrochloride (positive control) were administered to three groups of rats fully acclimated to the experimental environment, with one rat per group.
Solution Preparation: 2 mg/ml Levobupivacaine Hydrochloride Injection: 2.670 ml of 7.5 mg/ml levobupivacaine hydrochloride injection (Batch No. 92S0702) was pipetted into a 10 ml volumetric flask. 0.9% NaCl solution was added until the meniscus was level with the calibration line, and the solution was inverted and mixed thoroughly, to prepare 2 mg/ml levobupivacaine hydrochloride injection. 2 mg/ml Example Compound Solution: 6.6 mg of the example compound was accurately weighed and dissolved in 3.3 ml of 0.9% NaCl solution to prepare a 2 mg/ml example compound solution.
Both the positive control and the example compound were administered to each rat at 2 mg/ml, with an administration volume of 5 ml/kg, in a single injection near the sciatic nerve of the rat. After the administration, the rat was placed on a preheated hot plate (50±0.1° C.) of an intelligent hot plate instrument. […] The maximum thermal latency was controlled at 60 s. […] Any urine or feces on the hot plate was promptly cleaned and dried before subsequent tests.
Thermal latency results were expressed as the maximum proportional effect (MPE), calculated using the following formula.
Wherein: B represented the basal thermal latency of the rats; P was the maximum thermal latency C was the observed thermal latency at the detection time point.
Measurements were considered invalid if the MPE was less than 50% of the maximum proportional effect. If two consecutive measurements yielded an MPE of less than […], the experiment was terminated.

The test system of test [1] is rat subcutaneous infiltration model. Briefly: Local anesthetic effect by subcutaneous infiltration, Von Frey needle stimulation of back skin. As to conditions: 1 mg/ml, 0.5 mL subcutaneous injection on the back, 10 rats. Here is the method: After shaving and disinfecting the backs of SD rats (half male and half female) weighing 190-210 grams, a circle with a diameter of approximately 1.5 cm was drawn on one side of the exposed skin. 0.5 mL of a solution containing the drug was subcutaneously injected into the skin in the center. The solution, using physiological saline as the solvent, contained either 2 mg/ml bupivacaine hydrochloride or 1 mg/ml concentration of the compounds listed in Table 2 of the present application. Each group consisted of 10 rats. A Von Frey fiber with a 100-gram force was attached to a needle for local skin stimulation. One minute after drug administration, the rat's response to the stimulus was measured. Testing was conducted at 6 different points within the marked area of drug administration. Skin contraction, avoidance, and other behaviors following stimulation were observed and recorded. Three points in the center and three points around the circle were stimulated, and the number of skin contraction and avoidance behaviors was recorded as N6. […] Each compound was tested on 10 rats.

For test [2] the test system is unchanged. The test is described as above.
Where [3] appears, read: 2 mg/ml, 5 ml/kg, single injection near the sciatic nerve of the rat, hot plate 50±0.1° C.

In the case of `CCCC[N+]1(CCCCOc2c(C)cc(C)cc2C)CCCC[C@H]1C(=O)Nc1c(C)cccc1C` (stereo partly drawn) [Compound of Example 25, (2S)-1-Butyl-2-((2,6-dimethylphenyl)carbamoyl)-1-(4-(symmetricalmesityloxy)butyl)piperidine bromide], the “Onset Time/min” value (in the test with sciatic nerve of the rat (setting [3]); in test [1]) was 1 min each time. Moreover, the Duration/h fell in the range of 72 to 96 h in test [1], 24 to 48 h in test [2] (Drug Concentration 0.3 mmol/L) and 48 to 72 h in test [2] (Drug Concentration 1 mmol/L).

For the compound `CCCC[N+]1(CCCCOc2ccccc2)CCCC[C@H]1C(=O)Nc1ccc(F)cc1` (stereo partly drawn) [Compound of Example 39, (2S)-1-Butyl-2-((4-fluorophenyl)carbamoyl)-1-(4-phenoxybutyl)piperidine bromide], the Duration/h with sciatic nerve of the rat (rat, in vivo) was in the range of 72 to 96 h; in test [1] it was 72 to 96 h; in test [2] (Drug Concentration 0.3 mmol/L), 24 to 48 h; in test [2] (Drug Concentration 1 mmol/L), 48 to 72 h. The “Onset Time/min” value in the test with sciatic nerve of the rat (rat, in vivo) is on record as 1 min; in test [1] it was 1 min.

Regarding `CCCC[N+]1(CCCCOc2ccccc2C)CCCC[C@H]1C(=O)Nc1c(C)cccc1C` (stereo partly drawn) [Compound of Example 30, (2S)-1-Butyl-2-((2,6-dimethylphenyl)carbamoyl)-1-(4-(o-tolyloxy)butyl)piperidine bromide], the Duration/h in the test with sciatic nerve of the rat (rat, in vivo) was 72 to 96 h; in test [1], 72 to 96 h; in test [2] (Drug Concentration 0.3 mmol/L), 24 to 48 h; in test [2] (Drug Concentration 1 mmol/L), 48 to 72 h. The “Onset Time/min” value in the test with sciatic nerve of the rat (rat, in vivo) is listed as 1 min; in test [1] it was 1 min.

For the compound `CCCC[N+]1(CCCCNc2ccc(F)cc2)CCCC[C@H]1C(=O)Nc1c(C)cccc1C` (stereo partly drawn) [Compound of Example 3, (2S)-1-Butyl-2-((2,6-dimethylphenyl)carbamoyl)-1-(4-(p-fluorophenylamino)butyl)piperidine bromide], the “Onset Time/min” value (in the test on sciatic nerve of the rat (setting [3]); in test [1]) was 1 min throughout. Moreover, the Duration/h was 72 to 96 h in test [1], 24 to 48 h in test [2] (Drug Concentration 0.3 mmol/L) and 48 to 72 h in test [2] (Drug Concentration 1 mmol/L).

`CCCC[N+]1(CCCCOc2cccc(C)c2)CCCC[C@H]1C(=O)Nc1c(C)cccc1C` (stereo partly drawn) [Compound of Example 5, (2S)-1-Butyl-2-((2,6-dimethylphenyl)carbamoyl)-1-(4-(m-tolyloxy)butyl)piperidine bromide]: the Duration/h was 48 to 72 h with sciatic nerve of the rat (setting [3]), 72 to 96 h in test [1], 24 to 48 h in test [2] (Drug Concentration 0.3 mmol/L) and 48 to 72 h in test [2] (Drug Concentration 1 mmol/L). The “Onset Time/min” value (in the test with sciatic nerve of the rat (setting [3]); in test [1]) was 1 min in each case.
